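Exposure lasted 48 hours, with cells grown in 96-well plates and compounds tested at five concentrations. The concentration for 50% growth inhibition is given as GI50.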 Activity calls are given as the source filed them. Cut-off read from the data, not from the text of the source: active = GI50 up to about 1.1 µM and inactive = higher.
Columns and labels:
Experiment in all cases: NCI anticancer screen, dose series, 48 h
786-0 = test system: 786-0
A498 = test system: A498
A549 = test system: A549
ACHN = test system: ACHN
BT-549 = test system: BT-549
CAKI-1 = test system: CAKI-1
CCRF-CEM = test system: CCRF-CEM
COLO 205 = test system: COLO 205
DU-145 = test system: DU-145
EKVX = test system: EKVX
HCC 2998 = test system: HCC 2998
HCT-116 = test system: HCT-116
HCT-15 = test system: HCT-15
HL-60 = test system: HL-60
HOP-62 = test system: HOP-62
HOP-92 = test system: HOP-92
HT-29 = test system: HT-29
Hs-578T = test system: Hs-578T
IGROV-1 = test system: IGROV-1
K562 = test system: K562
KM12 = test system: KM12
LOX IMVI = test system: LOX IMVI
M14 = test system: M14
MCF7 = test system: MCF7
MDA-MB-231 = test system: MDA-MB-231
MDA-MB-435 = test system: MDA-MB-435
MDA-N = test system: MDA-N
MOLT-4 = test system: MOLT-4
Malme-3M = test system: Malme-3M
NCI-H226 = test system: NCI-H226
NCI-H23 = test system: NCI-H23
NCI-H460 = test system: NCI-H460
NCI-H522 = test system: NCI-H522
NCI/ADR-RES = test system: NCI/ADR-RES
OVCAR-3 = test system: OVCAR-3
OVCAR-4 = test system: OVCAR-4
OVCAR-5 = test system: OVCAR-5
OVCAR-8 = test system: OVCAR-8
PC-3 = test system: PC-3
RPMI-8226 = test system: RPMI-8226
RXF 393 = test system: RXF 393
SF-268 = test system: SF-268
SF-295 = test system: SF-295
SF-539 = test system: SF-539
SK-MEL-28 = test system: SK-MEL-28
SK-MEL-2 = test system: SK-MEL-2
SK-MEL-5 = test system: SK-MEL-5
SK-OV-3 = test system: SK-OV-3
SN12C = test system: SN12C
SNB-19 = test system: SNB-19
SNB-75 = test system: SNB-75
SR = test system: SR
SW-620 = test system: SW-620
T47D = test system: T47D
TK-10 = test system: TK-10
U-251 = test system: U-251
UACC-257 = test system: UACC-257
UACC-62 = test system: UACC-62
UO-31 = test system: UO-31

## CC(=O)NNc1nc(C)c(C(/C=C/c2ccc([N+](=O)[O-])cc2)=N/N)s1
786-0
  GI50: > 100 µM (inactive)
A498
  GI50: 70.5 µM (inactive)
A549
  GI50: > 100 µM (inactive)
ACHN
  GI50: > 100 µM (inactive)
BT-549
  GI50: > 100 µM (inactive)
CAKI-1
  GI50: > 100 µM (inactive)
CCRF-CEM
  GI50: > 100 µM (inactive)
COLO 205
  GI50: > 100 µM (inactive)
DU-145
  GI50: 96.4 µM (inactive)
EKVX
  GI50: 94.4 µM (inactive)
HCC 2998
  GI50: 66.1 µM (inactive)
HCT-116
  GI50: > 100 µM (inactive)
HCT-15
  GI50: > 100 µM
HL-60
  GI50: 21 µM (inactive)
HOP-62
  GI50: 68.1 µM (inactive)
HOP-92
  GI50: > 100 µM (inactive)
HT-29
  GI50: > 100 µM (inactive)
Hs-578T
  GI50: > 100 µM (inactive)
IGROV-1
  GI50: 54 µM (inactive)
K562
  GI50: 55.5 µM (inactive)
KM12
  GI50: > 100 µM (inactive)
LOX IMVI
  GI50: 86.9 µM (inactive)
M14
  GI50: > 100 µM (inactive)
MCF7
  GI50: > 100 µM (inactive)
MDA-MB-231
  GI50: 25.4 µM (inactive)
MDA-MB-435
  GI50: > 100 µM (inactive)
MDA-N
  GI50: > 100 µM (inactive)
MOLT-4
  GI50: > 100 µM (inactive)
Malme-3M
  GI50: > 100 µM (inactive)
NCI-H226
  GI50: > 100 µM (inactive)
NCI-H23
  GI50: > 100 µM (inactive)
NCI-H460
  GI50: > 100 µM (inactive)
NCI-H522
  GI50: > 100 µM (inactive)
NCI/ADR-RES
  GI50: > 100 µM (inactive)
OVCAR-3
  GI50: > 100 µM (inactive)
OVCAR-4
  GI50: > 100 µM (inactive)
OVCAR-5
  GI50: > 100 µM (inactive)
OVCAR-8
  GI50: > 100 µM (inactive)
PC-3
  GI50: > 100 µM (inactive)
RPMI-8226
  GI50: 30.9 µM (inactive)
RXF 393
  GI50: 55.3 µM (inactive)
SF-268
  GI50: > 100 µM (inactive)
SF-295
  GI50: > 100 µM (inactive)
SF-539
  GI50: > 100 µM (inactive)
SK-MEL-28
  GI50: > 100 µM (inactive)
SK-MEL-2
  GI50: > 100 µM (inactive)
SK-MEL-5
  GI50: > 100 µM (inactive)
SK-OV-3
  GI50: 41.3 µM (inactive)
SN12C
  GI50: 84.5 µM (inactive)
SNB-19
  GI50: > 100 µM (inactive)
SNB-75
  GI50: 87.9 µM (inactive)
SR
  GI50: 37.7 µM (inactive)
SW-620
  GI50: > 100 µM (inactive)
T47D
  GI50: > 100 µM (inactive)
TK-10
  GI50: 37.9 µM (inactive)
U-251
  GI50: > 100 µM (inactive)
UACC-257
  GI50: 88.1 µM (inactive)
UACC-62
  GI50: > 100 µM (inactive)
UO-31
  GI50: > 100 µM (inactive)

## O=c1[nH]c2cc(C(F)(F)F)ccc2nc1CBr
786-0
  GI50: 6.62 µM (inactive)
A498
  GI50: 18.4 µM (inactive)
A549
  GI50: 11 µM (inactive)
ACHN
  GI50: 7.19 µM (inactive)
BT-549
  GI50: 13.1 µM (inactive)
CAKI-1
  GI50: 6.25 µM (inactive)
CCRF-CEM
  GI50: 1.04 µM (active)
COLO 205
  GI50: 8.02 µM (inactive)
DU-145
  GI50: 14.3 µM (inactive)
EKVX
  GI50: 15.8 µM (inactive)
HCC 2998
  GI50: 17.8 µM (inactive)
HCT-116
  GI50: 13.5 µM (inactive)
HCT-15
  GI50: 11.4 µM
HL-60
  GI50: 2.69 µM (inactive)
HOP-62
  GI50: 8.05 µM (inactive)
HOP-92
  GI50: 2.79 µM (inactive)
HT-29
  GI50: 11.4 µM (inactive)
Hs-578T
  GI50: 22 µM (inactive)
IGROV-1
  GI50: 10.6 µM (inactive)
K562
  GI50: 5.73 µM (inactive)
KM12
  GI50: 14.9 µM (inactive)
LOX IMVI
  GI50: 1.82 µM (inactive)
M14
  GI50: 8.3 µM (inactive)
MCF7
  GI50: 4.97 µM (inactive)
MDA-MB-231
  GI50: 13.5 µM (inactive)
MDA-MB-435
  GI50: 11.4 µM (inactive)
MDA-N
  GI50: 12 µM (inactive)
MOLT-4
  GI50: 1.56 µM (inactive)
Malme-3M
  GI50: 14 µM (inactive)
NCI-H226
  GI50: 7.87 µM (inactive)
NCI-H23
  GI50: 15.4 µM (inactive)
NCI-H460
  GI50: 13.9 µM (inactive)
NCI-H522
  GI50: 0.36 µM (active)
NCI/ADR-RES
  GI50: 17.4 µM (inactive)
OVCAR-3
  GI50: 9.77 µM (inactive)
OVCAR-4
  GI50: 15.7 µM (inactive)
OVCAR-5
  GI50: 14.1 µM (inactive)
OVCAR-8
  GI50: 10.4 µM (inactive)
PC-3
  GI50: 13.1 µM (inactive)
RPMI-8226
  GI50: 5.97 µM (inactive)
RXF 393
  GI50: 12.4 µM (inactive)
SF-268
  GI50: 21.3 µM (inactive)
SF-295
  GI50: 14.9 µM (inactive)
SF-539
  GI50: 8.41 µM (inactive)
SK-MEL-28
  GI50: 15.1 µM (inactive)
SK-MEL-2
  GI50: 12.2 µM (inactive)
SK-MEL-5
  GI50: 9.59 µM (inactive)
SK-OV-3
  GI50: 18.5 µM (inactive)
SN12C
  GI50: 9.31 µM (inactive)
SNB-19
  GI50: 15.5 µM (inactive)
SNB-75
  GI50: 16.6 µM (inactive)
SR
  GI50: 4.85 µM (inactive)
SW-620
  GI50: 9.59 µM (inactive)
T47D
  GI50: 16 µM (inactive)
TK-10
  GI50: 13.9 µM (inactive)
U-251
  GI50: 9.48 µM (inactive)
UACC-257
  GI50: 14.7 µM (inactive)
UACC-62
  GI50: 9.51 µM (inactive)
UO-31
  GI50: 3.4 µM (inactive)

## O=C(NNC(=S)Nc1ccccc1)C12CC3CC(CC(C3)C1)C2
786-0
  GI50: 19.3 µM (inactive)
A498
  GI50: 21.1 µM (inactive)
A549
  GI50: 19.9 µM (inactive)
ACHN
  GI50: 20.3 µM (inactive)
BT-549
  GI50: 9.1 µM (inactive)
CAKI-1
  GI50: 21.9 µM (inactive)
CCRF-CEM
  GI50: 6.92 µM (inactive)
COLO 205
  GI50: 20.7 µM (inactive)
DU-145
  GI50: 28.6 µM (inactive)
EKVX
  GI50: 36 µM (inactive)
HCC 2998
  GI50: 30.9 µM (inactive)
HCT-116
  GI50: 13.6 µM (inactive)
HCT-15
  GI50: 7.28 µM
HL-60
  GI50: 7.01 µM (inactive)
HOP-62
  GI50: 35.2 µM (inactive)
HOP-92
  GI50: 30.1 µM (inactive)
HT-29
  GI50: 21.3 µM (inactive)
Hs-578T
  GI50: > 74.3 µM (inactive)
IGROV-1
  GI50: 25.1 µM (inactive)
K562
  GI50: 12.7 µM (inactive)
KM12
  GI50: 43.2 µM (inactive)
LOX IMVI
  GI50: 11.2 µM (inactive)
M14
  GI50: 13.8 µM (inactive)
MCF7
  GI50: 19.2 µM (inactive)
MDA-MB-231
  GI50: 40 µM (inactive)
MDA-MB-435
  GI50: 23.7 µM (inactive)
MDA-N
  GI50: 26.8 µM (inactive)
MOLT-4
  GI50: 10 µM (inactive)
Malme-3M
  GI50: 20 µM (inactive)
NCI-H226
  GI50: 26.7 µM (inactive)
NCI-H23
  GI50: 31.8 µM (inactive)
NCI-H460
  GI50: 7.23 µM (inactive)
NCI-H522
  GI50: 28.1 µM (inactive)
NCI/ADR-RES
  GI50: 15.5 µM (inactive)
OVCAR-3
  GI50: 10.6 µM (inactive)
OVCAR-4
  GI50: 29.2 µM (inactive)
OVCAR-5
  GI50: 59.4 µM (inactive)
OVCAR-8
  GI50: 21.7 µM (inactive)
PC-3
  GI50: 18.2 µM (inactive)
RPMI-8226
  GI50: 17.3 µM (inactive)
RXF 393
  GI50: 27.7 µM (inactive)
SF-268
  GI50: 17.1 µM (inactive)
SF-295
  GI50: 11.4 µM (inactive)
SF-539
  GI50: 25.8 µM (inactive)
SK-MEL-28
  GI50: 21.9 µM (inactive)
SK-MEL-2
  GI50: 22.1 µM (inactive)
SK-MEL-5
  GI50: 8.53 µM (inactive)
SK-OV-3
  GI50: 41.4 µM (inactive)
SN12C
  GI50: 24.5 µM (inactive)
SNB-19
  GI50: 25.4 µM (inactive)
SNB-75
  GI50: 29.4 µM (inactive)
SR
  GI50: 0.252 µM (active)
SW-620
  GI50: 24.2 µM (inactive)
T47D
  GI50: 27.6 µM (inactive)
TK-10
  GI50: 39.5 µM (inactive)
U-251
  GI50: 12.9 µM (inactive)
UACC-257
  GI50: 31.7 µM (inactive)
UACC-62
  GI50: 13.7 µM (inactive)
UO-31
  GI50: 4.58 µM (inactive)

Source: ChEMBL document CHEMBL1201862, “PubChem BioAssay data set” (2004)
